Results published in US9566290B2, “Boron-containing small molecules” (Anacor Pharmaceuticals, Inc., priority 2005, dated 2017).

For `OB1OCc2ccc(Oc3ccc(Cl)cc3)cc21` [C20, 6-(4-chlorophenoxy)benzo[c][1,2]oxaborol-1(3H)-ol], the melting point was 119 to 130 °C. Molecule `COc1ccc(S(=O)(=O)c2ccc3c(c2)B(O)OC3)cc1` [C33, 6-(4-methoxyphenylsulfonyl)benzo[c][1,2]oxaborol-1(3H)-ol] has a melting point of 180 to 192 °C. Work on `OB1OCc2ccc(Sc3cccs3)cc21` [C43, 6-(thiophen-2-ylthio)benzo[c][1,2]oxaborol-1(3H)-ol] yielded a melting point of 99 to 104 °C. Molecule `Cc1ccc(Sc2ccc3c(c2)B(O)OC3)cc1` [C95, 6-(p-tolylthio)benzo[c][1,2]oxaborol-1(3H)-ol] has a melting point of 139 to 144 °C. For `OB1OCc2cc3c(cc21)COB3O` [C60, 3,7-dihydro-1,5-dihydroxy-1H,3H-Benzo[2-c: 4,5-c′]bis[1,2]oxaborole], the melting point was greater than 250 °C. For `OB1OCc2ccc(Sc3ccc(Cl)cc3)cc21` [C88, 6-(4-chlorophenylthio)benzo[c][1,2]oxaborol-1(3H)-ol], the melting point was 157 to 161 °C. Work on `OB1OCc2ccc(N3CCN(c4ccccc4)CC3)cc21` [C53, 6-(4-phenylpiperazin-1-yl)benzo[c][1,2]oxaborol-1(3H)-ol] yielded a melting point of 159 to 161 °C. Work on `OB1OCc2cc(F)c(NCc3ccccc3)cc21` [C71, 6-(benzylamino)-5-fluorobenzo[c][1,2]oxaborol-1(3H)-ol] yielded a melting point of 159 to 164 °C. In the case of `OB1OCc2ccc(-n3ccc4cc(Cl)ccc43)cc21` [C75, 6-(5-chloro-1H-indol-1-yl)benzo[c][1,2]oxaborol-1(3H)-ol], the melting point is reported as 149 to 154 °C. `O=[N+]([O-])c1cc2c(cc1F)COB2O` [C58, 5-fluoro-6-nitrobenzo[c][1,2]oxaborol-1(3H)-ol] gave a melting point of 162 to 167 °C. For `OB1OCc2cccc(F)c21` [C86, 7-fluorobenzo[c][1,2]oxaborol-1(3H)-ol], the melting point was 120 to 124 °C. With `OB1OCc2ccc(Oc3ccc(C(F)(F)F)cc3)cc21` [C87, 6-(4-(trifluoromethyl)phenoxy)benzo[c][1,2]oxaborol-1(3H)-ol] the melting point was 98 to 105 °C. `OCc1cc2c(cc1Br)COB2O` [C59, 5-bromo-6-(hydroxymethyl)benzo[c][1,2]oxaborol-1(3H)-ol] showed a melting point greater than 257 °C. `COc1ccc2c(c1)c(SCCC#N)cn2-c1ccc2c(c1)B(O)OC2` [C73, 3-(1-(1-hydroxy-1,3-dihydrobenzo[c][1,2]oxaborol-6-yl)-5-methoxy-1H-indol-3-ylthio)propanenitrile] gave a melting point of 149 to 154 °C. `OB1OCc2ccc(Sc3ccc(C(F)(F)F)cc3)cc21` [C92, 6-(4-(trifluoromethyl)phenylthio)benzo[c][1,2]oxaborol-1(3H)-ol] showed a melting point of 111 to 113 °C. `CCCCC(=O)c1cccc(COc2ccc3c(c2)COB3O)c1` [C45, 1-(3-((1-hydroxy-1,3-dihydrobenzo[c][1,2]oxaborol-5-yloxy)methyl)phenyl)pentan-1-one] showed a melting point of 96 to 98 °C. In the case of `CN(c1ccc2c(c1)COB2O)S(=O)(=O)c1ccccc1` [C30, N-(1-hydroxy-1,3-dihydrobenzo[c][1,2]oxaborol-5-yl)-N-methylbenzenesulfonamide], the melting point is reported as 85 to 95 °C. For `O=C(Nc1ccc2c(c1)B(O)OC2)c1ccccc1` [C52, N-(1-hydroxy-1,3-dihydrobenzo[c][1,2]oxaborol-6-yl)benzamide], the melting point was 186 to 193 °C. Molecule `OB1OCc2ccc(-n3cc(Sc4ccccc4)c4ccccc43)cc21` [C66, 6-(3-(phenylthio)-1H-indol-1-yl)benzo[c][1,2]oxaborol-1(3H)-ol] has a melting point of 159 to 163 °C. Molecule `OB1OCc2ccc(NCc3ccccc3)cc21` [C77, 6-(benzylamino)benzo[c][1,2]oxaborol-1(3H)-ol] has a melting point of 126 to 133 °C. In the case of `O=S(=O)(Nc1ccc2c(c1)B(O)OC2)c1ccccc1` [C62, N-(1-hydroxy-1,3-dihydrobenzo[c][1,2]oxaborol-6-yl)benzenesulfonamide], the melting point is reported as 175 to 184 °C. With `OB1OCc2ccc(-n3ccc4ccccc43)cc21` [C55, 6-(1H-indol-1-yl)benzo[c][1,2]oxaborol-1(3H)-ol] the melting point was 135 to 140 °C. In the case of `[O-][S+](c1ccc(C(F)(F)F)cc1)c1ccc2c(c1)B(O)OC2` (stereo not shown) [C93, 6-(4-(trifluoromethyl)phenylsulfinyl)benzo[c][1,2]oxaborol-1(3H)-ol], the melting point is reported as 79 to 88 °C. With `N#Cc1ccc(Oc2cccc3c2B(O)OC3)cc1` [C74, 4-(1-hydroxy-1,3-dihydrobenzo[c][1,2]oxaborol-7-yloxy)benzonitrile] the melting point was 148 to 153 °C. `OB1OCc2ccc(F)cc21` [C13, 6-fluorobenzo[c][1,2]oxaborol-1(3H)-ol] showed a melting point of 110 to 117.5 °C. `COc1ccc2c(c1)c(Sc1ccccc1)cn2-c1ccc2c(c1)B(O)OC2` [C72, 6-(5-methoxy-3-(phenylthio)-1H-indol-1-yl)benzo[c][1,2]oxaborol-1(3H)-ol] showed a melting point of 135 to 141 °C. In the case of `OB1OCc2ccc(Oc3ccc(OC(F)(F)F)cc3)cc21` [C29, 6-(4-(trifluoromethoxy)phenoxy)benzo[c][1,2]oxaborol-1(3H)-ol], the melting point is reported as 97 to 101 °C. In the case of `Nc1cc2c(cc1F)COB2O` [C70, 6-amino-5-fluorobenzo[c][1,2]oxaborol-1(3H)-ol], the melting point is reported as 142 to 145 °C. With `OB1OCc2ccc3ccccc3c21` [C11, naphtho[1,2-c][1,2]oxaborol-1(3H)-ol] the melting point was 139 to 143 °C. Work on `OCc1cccc2c1B(O)OC2` [C64, 7-(hydroxymethyl)benzo[c][1,2]oxaborol-1(3H)-ol] yielded a melting point of 241 to 250 °C. `COc1ccc2c(c1)COB2O` [C7, 5-methoxybenzo[c][1,2]oxaborol-1(3H)-ol] gave a melting point of 102 to 104 °C. Molecule `OB1OCc2ccc(N(Cc3ccccc3)Cc3ccccc3)cc21` [C78, 6-(dibenzylamino)benzo[c][1,2]oxaborol-1(3H)-ol] has a melting point of 115 to 123 °C. In the case of `O=C(COc1ccc2c(c1)COB2O)N1CCCCC1` [C46, 2-(1-hydroxy-1,3-dihydrobenzo[c][1,2]oxaborol-5-yloxy)-1-(piperidin-1-yl)ethanone], the melting point is reported as 158 to 163 °C. With `CSc1ccc(Sc2ccc3c(c2)B(O)OC3)cc1` [C94, 6-(4-(methylthio)phenylthio)benzo[c][1,2]oxaborol-1(3H)-ol] the melting point was 117 to 120 °C. `CCOC(=O)COc1ccc2c(c1)COB2O` [C41, Ethyl 2-(1-hydroxy-1,3-dihydrobenzo[c][1,2]oxaborol-5-yloxy)acetate] showed a melting point of 134 to 137 °C. Work on `N#CCCSc1cn(-c2ccc3c(c2)B(O)OC3)c2ccccc12` [C67, 3-(1-(1-hydroxy-1,3-dihydrobenzo[c][1,2]oxaborol-6-yl)-1H-indol-3-ylthio)propanenitrile] yielded a melting point of 135 to 141 °C. `CN(C)c1ccc2c(c1)B(O)OC2` [C51, 6-(dimethylamino)benzo[c][1,2]oxaborol-(3H)-ol] showed a melting point of 120 to 123 °C. For `O=C(COc1ccc2c(c1)COB2O)N1CCN(c2ncccn2)CC1` [C47, 2-(1-hydroxy-1,3-dihydrobenzo[c][1,2]oxaborol-5-yloxy)-1-(4-(pyrimidin-2-yl)piperazin-1-yl)ethanone], the melting point was 190 to 195 °C. Molecule `Cc1ccc2c(c1)COB2O` [C8, 5-methylbenzo[c][1,2]oxaborol-1(3H)-ol] has a melting point of 124 to 128 °C. With `O=C(O)COc1ccc2c(c1)COB2O` [C42, 2-(1-hydroxy-1,3-dihydrobenzo[c][1,2]oxaborol-5-yloxy)acetic acid] the melting point was 163 to 166 °C. With `O=S(=O)(c1ccc(Cl)cc1)c1ccc2c(c1)B(O)OC2` [C90, 6-(4-chlorophenylsulfonyl)benzo[c][1,2]oxaborol-1(3H)-ol] the melting point was 157 to 163 °C. `N#Cc1cccc(COc2ccc3c(c2)COB3O)c1` [C96, 3-((1-hydroxy-1,3-dihydrobenzo[c][1,2]oxaborol-5-yloxy)methyl)benzonitrile] gave a melting point of 147 to 150 °C. With `COc1ccc2c(ccn2-c2ccc3c(c2)B(O)OC3)c1` [C68, 6-(5-methoxy-1H-indol-1-yl)benzo[c][1,2]oxaborol-1(3H)-ol] the melting point was 120 to 124 °C. `N#CCCSc1cn(-c2ccc3c(c2)B(O)OC3)c2ccc(Cl)cc12` [C76, 3-(5-chloro-1-(1-hydroxy-1,3-dihydrobenzo[c][1,2]oxaborol-6-yl)-1H-indol-3-ylthio)propanenitrile] showed a melting point greater than 225 °C. With `[O-][S+](c1ccc(Cl)cc1)c1ccc2c(c1)B(O)OC2` (stereo not shown) [C89, 6-(4-chlorophenylsulfinyl)benzo[c][1,2]oxaborol-1(3H)-ol] the melting point was 154 to 161 °C. For `CC(=O)Nc1ccc2c(c1)B(O)OC2` [C63, N-(1-hydroxy-1,3-dihydrobenzo[c][1,2]oxaborol-6-yl)acetamide], the melting point was 176 to 185 °C. With `N#Cc1cccc(Oc2ccc3c(c2)B(O)OC3)c1` [C19, 3-(1-hydroxy-1,3-dihydrobenzo[c][1,2]oxaborol-6-yloxy)benzonitrile] the melting point was 146 to 149 °C. For `O=S(=O)(c1ccccc1)N(c1ccc2c(c1)COB2O)S(=O)(=O)c1ccccc1` [C91, N-(1-hydroxy-1,3-dihydrobenzo[c][1,2]oxaborol-5-yl)-N-(phenylsulfonyl)benzenesulfonamide], the melting point was 142 to 152 °C. `OB1OCc2ccc(N3CCN(c4ccccn4)CC3)cc21` [C48, 6-(4-(pyridin-2-yl)piperazin-1-yl)benzo[c][1,2]oxaborol-1(3H)-ol] showed a melting point of 135 to 138 °C. `OB1OCc2ccc(N3CCOCC3)cc21` [C56, 6-morpholinobenzo[c][1,2]oxaborol-1(3H)-ol] showed a melting point of 128 to 132 °C. `OB1OCc2ccc(Sc3ccccc3)cc21` [C28, 6-(phenylthio)benzo[c][1,2]oxaborol-1(3H)-ol] gave a melting point of 121 to 124 °C. `COc1ccc(Sc2ccc3c(c2)B(O)OC3)cc1` [C32, 6-(4-methoxyphenylthio)benzo[c][1,2]oxaborol-1(3H)-ol] showed a melting point of 95 to 100 °C. With `OB1OCc2cc3c(cc21)OCO3` [C69, 5,6-methylenedioxybenzo[c][1,2]oxaborol-1(3H)-ol] the melting point was 185 to 189 °C. Molecule `OB1OCc2ccc(Sc3ccc(F)cc3)cc21` [C44, 6-(4-fluorophenylthio)benzo[c][1,2]oxaborol-1(3H)-ol] has a melting point of 135 to 138 °C. For `OB1OCc2ccc(-n3cc(Sc4ccccc4)c4cc(Cl)ccc43)cc21` [C80, 6-(5-chloro-3-(phenylthio)-1H-indol-1-yl)benzo[c][1,2]oxaborol-1(3H)-ol], the melting point was 145 to 151 °C.
